Several values for one entry are separate records, joined by “and”; a condition that tells them apart may be missing. Identical values can stand only once. Like-named read-outs stand apart in the source and are kept apart here.
Tests used:
uninfected lymphocytes = test: DNA synthesis of uninfected lymphocytes; assay type: cell-based, human
Procedure: (§1) Heparinized whole venous blood was obtained from the umbilical cords of newborn infants (human umbilical cord lymphocytes) or EBV-seronegative volunteers (peripheral blood lymphocytes) in collaboration with Temple University Hospital, Philadelphia, PA. Mononuclear leukocytes were prepared by the Ficoll-Hypaque method of Boyum (Scand. J. Clin. Invest. 21 (Sup. 97), 77 (1968)) and were cultured in RPMI-1640 supplemented with 20% fetal bovine serum as described (Henderson et al, Virology 76, 152 (1977)). The lymphoblastoid cell lines BJAB and RAJI were gifts of Drs. Werner and Gertrude Henle, Children's Hospital, University of Pennsylvania, Philadelphia, PA, and were cultured as described above. The lymphoblastoid line C85-5C was obtained by transformation of human umbilical cord lymphocytes following infection with EBV and maintained as described aove. Cultured mouse L cells were maintained in minimum essential medium (Eagle) supplemented with Earle's salts, L-glutamine and 6% fetal bovine serum. Interferon-treated mouse L cells were supplied by Dr. Esther H. Chang, National Cancer Institute, NIH. […] EBV stocks were maintained at -70° C. until use. Human umbilical cord lymphocytes and peripheral blood lymphocytes were infected as described (Henderson et al, Supra).
(§2) The antiviral properties of 5'-dephosphorylated "core" (2'-5')A(pA)2, (2'-5')A(pA)3 and (2'-5')3'dA-(p3'dA)2 were compared to the antiviral properties of IFN-α and IFN-β. The (2'-5')oligonucleotides and interferons inhibited Epstein-Barr Virus (EBV)-induced stimulation of DNA synthesis in EBV infected human lymphocytes. […] The "core" 3'-deoxy (2'-5') oligonucleotide analog inhibited EBV-induced morphological transformation of lymphocytes much the same as "core" (2'-5')A(pA)2 and (2'-5')A(pA)3.

[1] = Stability (hydrolysis) in HeLa cell extracts; assay type: in vitro ADME; details: 500 μM; cellulose tlc (solvents A and B)
Procedure: FIG. 2 is a stability representation of (2'-5')p3 A(pA)n and (2'-5')p3 3'dA(p3'dA)n in HeLa cell extracts.
The stability of (2'-5')ppp3'dA(p3'dA)n in HeLa cell extracts was compared to that of (2'-5')pppA(pA)n. […] With 500 μM (2'-5')pppA(pA)n, there was a 50% hydrolysis in 45 min as determined by DEAE cellulose chromatography; with 500 μM authentic core analog, (2'-5')3'dA(p3'dA)2, there was no hydrolysis as determined by cellulose tlc (solvents A and B). Neither cordycepin nor 3'dAMP was detected. The lack of hydrolysis of the analog may be similar to the lack of hydrolysis of (3'-5')2'-deoxyoligonucleotides by the 2',5'-phosphodiesterase.

[2] = tested on: BJAB lymphoblastoid cell line; test: Cytotoxicity by colony formation in microtiter plates, BJAB; assay type: cell-based; details: for Concentration at which colony formation was inhibited by greater than 50 percent: treatment for 7 days
Procedure: as §1
(§3) Therefore, the effect of these agents on colony formation in closely related lymphoblastoid cell lines was determined (Table 3).

Epstein-Barr Virus (EBV) [3] = test: EBV-induced morphological transformation of lymphocytes; assay type: cell-based; details: absence of interferon
Procedure: as §1, §2

[4] = tested on: Raji lymphoblastoid cell line; test: Cytotoxicity by colony formation in microtiter plates, Raji; assay type: cell-based; details: for Concentration at which colony formation was inhibited by greater than 50 percent: treatment for 7 days
Procedure: as §1, §3

[5] = tested on: Herpes Simplex Virus Type 1 (HSV-1); test: Infected centers assay: HSV-1 exposed leukocytes plated onto human foreskin fibroblast monolayers, cytopathic effects (cpe); assay type: cell-based; details: for development of cpe from HSV-1 infected leukocytes / HSV-1 replication: 72 hr incubation, human foreskin fibroblast monolayers
Procedure: Therefore, we employed an infected centers assay utilizing lymphocytes to determine the ability of (2'-5') oligonucleotides to inhibit HSV-1. After incubation for 72 hr with or without (2'-5')oligonucleotides, leukocytes exposed to HSV-1 were plated onto human foreskin fibroblast monolayers (Table 2).

Epstein-Barr Virus (EBV) [6] = test: EBV-induced stimulation of DNA synthesis in EBV infected human lymphocytes; assay type: cell-based
Procedure: as §1

[7] = tested on: lymphoblastoid cell lines; test: Lymphoblast colony formation / cytotoxicity, cell line not given; assay type: cell-based
Procedure: as §1, with “Mononuclear leukocytes were prepared by the Ficoll-Hypaque method of Boyum (Scand. J. Clin. Invest. 21 (Sup. 97), 77 (1968)) and were cultured in RPMI-1640 supplemented with 20% fetal bovine serum as described (Henderson et al, Virology 76, 152 (1977)).” left out
as §3

[8] = tested on: C85-5C lymphoblastoid cell line; test: Cytotoxicity by colony formation in microtiter plates, C85-5C; assay type: cell-based, human; details: treatment for 7 days
Procedure: as §1, with “Human umbilical cord lymphocytes and peripheral blood lymphocytes were infected as described (Henderson et al, Supra).” left out
as §3

Row | Compound | DNA synthesis of uninfected lymphocytes (uninfected lymphocytes) | concentration found toxic (inhibition of colony formation) [2] | Concentration at which colony formation was inhibited by greater than 50 percent [2] | EBV-induced morphological transformation of lymphocytes (Epstein-Barr Virus (EBV) [3]) | concentration found toxic (inhibition of colony formation) [4] | Concentration at which colony formation was inhibited by greater than 50 percent [4] | cpe at given number of HSV-exposed leukocytes per cell ([5]; 10 μM, 2 × 10^5 leukocytes) | cpe at given number of HSV-exposed leukocytes per cell ([5]; 10 μM, 2.2 × 10^4 leukocytes) | cpe at given number of HSV-exposed leukocytes per cell ([5]; 10 μM, 6.7 × 10^4 leukocytes) | cpe at given number of HSV-exposed leukocytes per cell ([5]; 50 μM, 2 × 10^5 leukocytes) | cpe at given number of HSV-exposed leukocytes per cell ([5]; 50 μM, 2.2 × 10^4 leukocytes) | cpe at given number of HSV-exposed leukocytes per cell ([5]; 50 μM, 6.7 × 10^4 leukocytes) | cpe at given number of HSV-exposed leukocytes per cell ([5]; 75 μM, 2 × 10^5 leukocytes) | cpe at given number of HSV-exposed leukocytes per cell ([5]; 75 μM, 2.2 × 10^4 leukocytes) | cpe at given number of HSV-exposed leukocytes per cell ([5]; 75 μM, 6.7 × 10^4 leukocytes) | cpe at given number of HSV-exposed leukocytes per cell ([5]; 150 μM, 2.2 × 10^4 leukocytes) | development of cpe from HSV-1 infected leukocytes / HSV-1 replication [5] | EBV-induced stimulation of DNA synthesis (Epstein-Barr Virus (EBV) [6]) | cpe at given number of HSV-exposed leukocytes per cell ([5]; 150 μM, 2 × 10^5 leukocytes) | cpe at given number of HSV-exposed leukocytes per cell ([5]; 150 μM, 6.7 × 10^4 leukocytes) | other results
1 | Nc1ncnc2c1ncn2[C@@H]1O[C@H](COP(=O)(O)O[C@@H]2C[C@@H](COP(=O)(O)O[C@@H]3C[C@@H](CO)O[C@H]3n3cnc4c(N)ncnc43)O[C@H]2n2cnc3c(N)ncnc32)C[C@H]1O [(2'-5')3'dA(p3'dA)2, 3'-deoxyadenylyl (2'-5')3'-deoxyadenylyl(2'-5')3'-deoxyadenosine] | inhibited only viral-induced DNA synthesis | no toxicity | > 300 µM | inhibited | no toxicity | > 300 µM | +++ | + | ++ | ++ | + | ++ | ++ | 0 | + | 0 | less effective in inhibiting the development of cpe | inhibited only viral-induced DNA synthesis | – | – | hydrolysis in HeLa cell extracts [1]: no hydrolysis; concentration found toxic (inhibition of colony formation) ([2]; listed as (2'-5')2'dA(p3'dA)3): > 300 µM; concentration found toxic (inhibition of colony formation) ([4]; listed as (2'-5')2'dA(p3'dA)3): > 300 µM
2 | Nc1ncnc2c1ncn2[C@@H]1O[C@H](COP(=O)(O)O[C@@H]2[C@H](O)[C@@H](COP(=O)(O)O[C@@H]3[C@H](O)[C@@H](CO)O[C@H]3n3cnc4c(N)ncnc43)O[C@H]2n2cnc3c(N)ncnc32)[C@@H](O)[C@H]1O [(2'-5')A(pA)2, adenylyl-(2'-5')adenylyl(2'-5')adenosine] | potent inhibitors | 150 to 300 µM and 300 µM | 150 to 300 µM | inhibited | 150 to 300 µM and 300 µM | 300 µM | +++ | 0 | ++ | ++ | 0 | ++ | ++ | 0 | 0 | 0 | inhibited the development of cpe | potent inhibitors | + | 0 | –
3 | Nc1ncnc2c1ncn2[C@@H]1O[C@H](COP(=O)(O)O[C@@H]2[C@H](O)[C@@H](COP(=O)(O)O[C@@H]3[C@H](O)[C@@H](COP(=O)(O)O[C@@H]4[C@H](O)[C@@H](CO)O[C@H]4n4cnc5c(N)ncnc54)O[C@H]3n3cnc4c(N)ncnc43)O[C@H]2n2cnc3c(N)ncnc32)[C@@H](O)[C@H]1O [(2'-5')A(pA)3, adenylyl(2'-5')adenylyl(2'-5')-adenylyl (2'-5')adenosine] | potent inhibitors | – | 150 µM | inhibited | – | 50 µM | ++ | 0 | + | + | 0 | 0 | ++ | 0 | 0 | 0 | inhibited the development of cpe | potent inhibitors | + | 0 | –
4 | IFN-α | – | – | – | – | – | – | – | – | – | – | – | – | – | – | – | – | – | inhibited | – | – | cytotoxicity / effect on lymphoblast colony formation [7]: no appreciable effect; Concentration at which colony formation was inhibited by greater than 50 percent [8]: > 1000 U/ml

Source: patent US4464359A, “(2'-5')-Oligo (3'-deoxyadenylate) and derivatives thereof” (Research Corporation, priority 1981, dated 1984)
